# Results taken from paper PMC10987496, “Activity-stability trade-off observed in variants at position 315 of the GH10 xylanase XynR” (Scientific Reports, 2024).
# Target: T1, XynR (WT) (Halalkalibacterium halodurans, UniProt P07528)
# T1 construct: gene xynA; pET-21b(+)-XynR expressed in E. coli BL21(DE3), purified on HisTrap (His-tagged); residues 2-359 modelled in 2 chains; catalytic E150/E256
# Assay: X-ray crystallography, […] A (co-crystallisation and soaking)
# Type: binding
# Settings: 0.35 M xylobiose, Tris-HCl pH 8.0 mixed with reservoir pH 4.6 (0.02 M CaCl2, acetate, MPD), 20 °C; active site, subsites +1 and +2
# T1 sequence (P07528 46-396): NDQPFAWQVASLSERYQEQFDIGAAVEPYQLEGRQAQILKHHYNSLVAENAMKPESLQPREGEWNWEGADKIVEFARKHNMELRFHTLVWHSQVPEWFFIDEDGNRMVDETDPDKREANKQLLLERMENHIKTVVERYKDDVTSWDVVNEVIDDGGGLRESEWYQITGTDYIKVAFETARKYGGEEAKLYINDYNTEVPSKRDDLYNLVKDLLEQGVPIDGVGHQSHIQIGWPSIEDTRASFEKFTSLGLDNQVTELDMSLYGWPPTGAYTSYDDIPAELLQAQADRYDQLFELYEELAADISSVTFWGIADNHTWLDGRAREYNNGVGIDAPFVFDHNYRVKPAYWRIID
smiles,measurement,value
OC1OC[C@@H](O[C@@H]2OC[C@@H](O)[C@H](O)[C@H]2O)[C@H](O)[C@H]1O (stereo partly shown) [xylobiose],"X-ray crystallography, 1.80 A (co-crystallisation and soaking)",we made crystallographic analysis of WT complexed with xylobiose
